Data as given in patent US20260028354A1, “TETRAHYDRONAPHTHALENE DERIVATIVES AS ESTROGEN RECEPTOR DEGRADERS” (REGENT OF THE UNIVERSITY OF MICHIGAN, priority 2022, published 2026).

Experiment: Western blot analysis for "B" compounds
Type: cell-based
Conditions: read-out: Traditional Western Degradation Potency (DC50)
Experimental: Western Blot Analysis. Western blot analysis was performed essentially as described previously. The cells treated with indicated compounds were lysed in Radioimmunoprecipitation Assay Protein Lysis and Extraction Buffer (25 mmol/I. Tris.HCl, pH 7.6, 150 mmol/L, NaCl, 1% Nonidet P-40, 1% sodium deoxycholate, and 0.1% sodium dodecyl sulfate) containing proteinase inhibitor cocktail (Roche Diagnostics, Mannheim, Germany). Equal amounts of total protein were electrophoresed through 10% SDS-polyacrylamide gels after determination of protein concentration by BCA assay (Fisher Scientific, Pittsburgh, PA), The separated protein bands were transferred onto PVDF membranes (GE Healthcare Life Sciences, Marlborough, MA) and blotted against different antibodies, as indicated. The blots were scanned, and the band intensities were quantified using GelQuant.NET software provided by biochemlabsolutions.com. The relative mean intensity of target proteins was expressed after normalization to the intensity of glyceraldehyde-3-phosphate dehydrogenase bands.

First: O=C1CCC(N2C(=O)c3cc4c(cc3C2=O)CN(C(=O)CN2CCC3(CC2)CCN(c2c(F)cc([C@@H]5c6ccc(O)cc6CC[C@@H]5c5ccccc5)cc2F)C3)C4)C(=O)N1 (mixture of isomers) [Compound B34, 6-(2-(2-(2,6-difluoro-4-((1R,2S)-6-hydroxy-2-phenyl-1,2,3,4-tetrahydronaphthalen-1-yl)phenyl)-2,8-diazaspiro[4.5]decan-8-yl)acetyl)-2-(2,6-dioxopiperidin-3-yl)-6,7-dihydropyrrolo[3,4-f]isoindole-1,3(2H,5H)-dione]
Second: O=C1CCC(N2C(=O)c3cc4c(cc3C2=O)CN(CC(=O)N2CCC3(CCN(c5ccc([C@@H]6c7ccc(O)cc7CC[C@@H]6c6ccccc6)cc5)CC3)C2)C4)C(=O)N1 (mixture of isomers) [Compound B185, 2-(2,6-dioxopiperidin-3-yl)-6-(2-(8-(4-((1R,2S)-6-hydroxy-2-phenyl-1,2,3,4-tetrahydronaphthalen-1-yl)phenyl)-2,8-diazaspiro[4.5]decan-2-yl)-2-oxoethyl)-6,7-dihydropyrrolo[3,4-f]isoindole-1,3(2H,5H)-dione]
The DC50 of the first is higher: greater than 100 nM for the first, 10 to 100 nM for the second.

`O=C1CCC(N2C(=O)c3cc4c(cc3C2=O)CN(CC2CCN(C(=O)C3CN(c5ccc([C@@H]6c7ccc(O)cc7CC[C@@H]6c6ccccc6)cc5)C3)CC2)C4)C(=O)N1` (mixture of isomers) [Compound B35, 2-(2,6-dioxopiperidin-3-yl)-6-((1-(1-(4-((1R,2S)-6-hydroxy-2-phenyl-1,2,3,4-tctrahydronaphthalcn-1-yl)phcnyl)azctidinc-3-carbonyl)piperidin-4-yl)methyl)-6,7-dihydropyrrolo[3,4-f]isoindole-1,3(2H,5H)-dione] and `O=C1CCC(N2C(=O)c3cc4c(cc3C2=O)CN(CC(=O)N2CCC3(CC2)CN(c2ccc([C@@H]5c6ccc(O)cc6CC[C@@H]5c5ccccc5)cc2)C3)C4)C(=O)N1` (mixture of isomers) [Compound B186, 2-(2,6-dioxopiperidin-3-yl)-6-(2-(2-(4-((1R,2S)-6-hydroxy-2-phenyl-1,2,3,4-tetrahydronaphthalen-1-yl)phenyl)-2,7-diazaspiro[3.5]nonan-7-yl)-2-oxoethyl)-6,7-dihydropyrrolo[3,4-f]isoindole-1,3(2H,5H)-dione] fall in the same range of DC50: 10 to 100 nM for the first, 10 to 100 nM for the second.

`O=C1CCC(N2C(=O)c3cc4c(cc3C2=O)CN(C(=O)CN2CCC3(CC2)CCN(c2ccc([C@@H]5c6ccc(B(O)O)cc6CC[C@@H]5c5ccccc5)cc2)CC3)C4)C(=O)N1` (mixture of isomers) [Compound B51, ((5R,6S)-5-(4-(9-(2-(6-(2,6-dioxopiperidin-3-yl)-5,7-dioxo-3,5,6,7-tetrahydropyrrolo[3,4-f]isoindol-2(1H)-yl)-2-oxoethyl)-3,9-diazaspiro[5.5]undecan-3-yl)phenyl)-6-phenyl-5,6,7,8-tetrahydronaphthalen-2-yl)boronic acid] and `O=C1CCC(N2C(=O)c3cc4c(cc3C2=O)CN(C(=O)CN2CCC3(CC2)CCN(c2ccc([C@@H]5c6ccc(O)cc6CC[C@@H]5c5ccccc5)cc2)CC3)CC4)C(=O)N1` (mixture of isomers) [Compound B190, 2-(2,6-dioxopiperidin-3-yl)-6-(2-(9-(4-((1R,2S)-6-hydroxy-2-phenyl-1,2,3,4-tetrahydronaphthalen-1-yl)phenyl)-3,9-diazaspiro[5.5]undecan-3-yl)acetyl)-5,6,7,8-tetrahydro-1H-pyrrolo[3,4-g]isoquinoline-1,3(2H)-dione] cannot be ordered by DC50: greater than 100 nM for the first, greater than 100 nM for the second.

`O=C1CCC(N2C(=O)c3cc4c(cc3C2=O)CN(CC(=O)N2CCC3(CC2)CCN(c2ccc([C@H]5c6ccc(O)cc6CC[C@H]5c5ccccc5)cn2)CC3)C4)C(=O)N1` (mixture of isomers) [Compound B81, 2-(2,6-dioxopiperidin-3-yl)-6-(2-(9-(5-((1R,2R)-6-hydroxy-2-phenyl-1,2,3,4-tetrahydronaphthalen-1-yl)pyridin-2-yl)-3,9-diazaspiro[5.5]undecan-3-yl)-2-oxoethyl)-6,7-dihydropyrrolo[3,4-f]isoindole-1,3(2H,5H)-dione] and `O=C1CCC(N2C(=O)c3cc4c(cc3C2=O)CN(CC(=O)N2CCC3(CC2)CCN(c2ncc([C@H]5c6ccc(O)cc6CC[C@H]5c5ccccc5)cn2)CC3)C4)C(=O)N1` (mixture of isomers) [Compound B82, 2-(2,6-dioxopiperidin-3-yl)-6-(2-(9-(5-((1R,2R)-6-hydroxy-2-phenyl-1,2,3,4-tetrahydronaphthalen-1-yl)pyrimidin-2-yl)-3,9-diazaspiro[5.5]undecan-3-yl)-2-oxoethyl)-6,7-dihydropyrrolo[3,4-f]isoindole-1,3(2H,5H)-dione] cannot be ordered by DC50: greater than 100 nM for the first, greater than 100 nM for the second.

`O=C1CCC(N2C(=O)c3cc4c(cc3C2=O)CN(CC(=O)N2CCC3(CC2)CCN(c2cnc([C@H]5c6ccc(O)cc6CC[C@H]5c5ccccc5)cn2)CC3)C4)C(=O)N1` (mixture of isomers) [Compound B85, 2-(2,6-dioxopiperidin-3-yl)-6-(2-(9-(5-((1R,2R)-6-hydroxy-2-phenyl-1,2,3,4-tetrahydronaphthalen-1-yl)pyrazin-2-yl)-3,9-diazaspiro[5.5]undecan-3-yl)-2-oxoethyl)-6,7-dihydropyrrolo[3,4-f]isoindole-1,3(2H,5H)-dione] and `O=C1CCC(N2C(=O)c3cc4c(cc3C2=O)CN(CC(=O)N2CCC3(CC2)CCN(c2ccc([C@H]5c6ccc(O)cc6CC[C@H]5c5ccccc5)nc2)CC3)C4)C(=O)N1` (mixture of isomers) [Compound B86, 2-(2,6-dioxopiperidin-3-yl)-6-(2-(9-(6-((1R,2R)-6-hydroxy-2-phenyl-1,2,3,4-tetrahydronaphthalen-1-yl)pyridin-3-yl)-3,9-diazaspiro[5.5]undecan-3-yl)-2-oxoethyl)-6,7-dihydropyrrolo[3,4-f]isoindole-1,3(2H,5H)-dione] cannot be ordered by DC50: greater than 100 nM for the first, greater than 100 nM for the second.

First: O=C1CCC(N2Cc3cc4c(cc3C2=O)CN(CC(=O)N2CCC3(CCN(c5ccc([C@@H]6c7ccc(O)cc7CC[C@@H]6c6ccccc6)cc5)CC3)C2)C4)C(=O)N1 (mixture of isomers) [Compound B182, 3-(6-(2-(8-(4-((1R,2S)-6-hydroxy-2-phenyl-1,2,3,4-tetrahydronaphthalen-1-yl)phenyl)-2,8-diazaspiro[4.5]decan-2-yl)-2-oxoethyl)-1-oxo-3,5,6,7-tetrahydropyrrolo[3,4-f]isoindol-2(1H)-yl)piperidine-2,6-dione]
Second: O=C1CCC(N2Cc3cc4c(cc3C2=O)CN(CC(=O)N2CCC3(CC2)CN(c2ccc([C@@H]5c6ccc(O)cc6CC[C@@H]5c5ccccc5)cc2)C3)C4)C(=O)N1 (mixture of isomers) [Compound B183, 3-(6-(2-(2-(4-((1R,2S)-6-hydroxy-2-phenyl-1,2,3,4-tetrahydronaphthalen-1-yl)phenyl)-2,7-diazaspiro[3.5]nonan-7-yl)-2-oxoethyl)-1-oxo-3,5,6,7-tetrahydropyrrolo[3,4-f]isoindol-2(1H)-yl)piperidine-2,6-dione]
The DC50 of the first is higher: 10 to 100 nM for the first, less than 10 nM for the second.

First: O=C1CCC(N2Cc3cc4c(cc3C2=O)CN(CC(=O)N2CCC3(C2)CN(c2ccc([C@@H]5c6ccc(O)cc6CC[C@@H]5c5ccccc5)cc2)C3)C4)C(=O)N1 (mixture of isomers) [Compound B184, 3-(6-(2-(2-(4-((1R,2S)-6-hydroxy-2-phenyl-1,2,3,4-tetrahydronaphthalen-1-yl)phenyl)-2,6-diazaspiro[3.4]octan-6-yl)-2-oxoethyl)-1-oxo-3,5,6,7-tetrahydropyrrolo[3,4-f]isoindol-2(1H)-yl)piperidine-2,6-dione]
Second: O=C1CCC(N2C(=O)c3cc4c(cc3C2=O)CN(CC(=O)N2CCC3(C2)CN(c2ccc([C@@H]5c6ccc(O)cc6CC[C@@H]5c5ccccc5)cc2)C3)C4)C(=O)N1 (mixture of isomers) [Compound B187, 2-(2,6-dioxopiperidin-3-yl)-6-(2-(2-(4-((1R,2S)-6-hydroxy-2-phenyl-1,2,3,4-tetrahydronaphthalen-1-yl)phenyl)-2,6-diazaspiro[3.4]octan-6-yl)-2-oxoethyl)-6,7-dihydropyrrolo[3,4-f]isoindole-1,3(2H,5H)-dione]
The DC50 of the first is lower: less than 10 nM for the first, 10 to 100 nM for the second.

`O=C1CCC(N2C(=O)c3cc4c(cc3C2=O)CN(CC(=O)N2CC3(C2)CN(c2ccc([C@@H]5c6ccc(O)cc6CC[C@@H]5c5ccc(F)cc5)cc2)C3)C4)C(=O)N1` (mixture of isomers) [Compound B188, 2-(2,6-dioxopipcridin-3-yl)-6-(2-(6-(4-((1R,2S)-2-(4-fluorophenyl)-6-hydroxy-1,2,3,4-tetrahydronaphthalen-1-yl)phenyl)-2,6-diazaspiro[3.3]heptan-2-yl)-2-oxoethyl)-6,7-dihydropyrrolo[3,4-f]isoindole-1,3(2H,5H)-dione] and `O=C1CCC(N2C(=O)c3cc4c(cc3C2=O)CN(CC(=O)N2CC3(CCN(c5ccc([C@@H]6c7ccc(O)cc7CC[C@@H]6c6ccccc6)cc5)CC3)C2)CC4)C(=O)N1` (mixture of isomers) [Compound B192, 2-(2,6-dioxopiperidin-3-yl)-6-(2-(7-(4-((1R,2S)-6-hydroxy-2-phenyl-1,2,3,4-tetrahydronaphthalen-1-yl)phenyl)-2,7-diazaspiro[3.5]nonan-2-yl)-2-oxoethyl)-5,6,7,8-tetrahydro-1H-pyrrolo[3,4-g]isoquinoline-1,3(2H)-dione] fall in the same range of DC50: 10 to 100 nM for the first, 10 to 100 nM for the second.

In the case of `O=C1CCC(N2C(=O)c3cc4c(cc3C2=O)CN(CC(=O)N2CCC3(CC2)CCN(c2ccc([C@@H]5c6ccc(O)cc6CC[C@@H]5c5ccccc5)cc2)CC3)CC4)C(=O)N1` (mixture of isomers) [Compound B191, 2-(2,6-dioxopiperidin-3-yl)-6-(2-(9-(4-((1R,2S)-6-hydroxy-2-phenyl-1,2,3,4-tetrahydronaphthalen-1-yl)phenyl)-3,9-diazaspiro[5.5]undecan-3-yl)-2-oxoethyl)-5,6,7,8-tetrahydro-1H-pyrrolo[3,4-g]isoquinoline-1,3(2H)-dione], the DC50 was 10 to 100 nM.
